Test results as given in patent US5314999A, “Derivatives of basic polyene macrolides and their preparation” (Laboratoires Mayoly-Spindler, priority 1989, dated 1994).
Structures can show the parent of a compound that is named as a salt. Where two headings read alike, the source gives them in different places.

Tests used:
Format in all cases: cell-based
PBL = assay: Toxicity on nucleated cells, human PBL; settings: 90 min
Protocol: (§1) B.2: Study of the toxicity on nucleated cells
(§2) The solutions of the amphotericine B derivatives are prepared similarly to those mentioned in paragraph B.1.
(§3) The cells are prepared by placing 20 ml of blood diluted to 1/2 with 0.9% NaCl into a tube together with 10 ml of Ficoll-hypaque, and the mixture is centrifuged at 2000 rpm for 30 minutes. The cell nuclei are recovered and washed twice with PBS buffer containing 5% of foetal calf serum.
(§4) The cells are prepared by suspending 1.14×10^6 cells/ml in RPMI 1640 containing 2.5% of foetal calf serum and by filling each well with 150 μl. 50 μl of each dilution of the derivatives are added and also one control (5% glucose solution).
(§5) The cells are then incubated in a steam cabinet at a CO2 concentration of 5% for 1 hour 30 at 37° C. or at ambient temperature.
(§6) To evaluate the toxicity of the derivatives, a cell count in the presence of trypan blue is made, and the LD 50 (concentration of the derivative leading to a mortality of 50%) is calculated with respect to the control (5% glucose solution) for each concentration of each derivative.

DAUDI (human lymphoma B) = assay: Toxicity on nucleated cells, DAUDI human lymphoma B; settings: 1 hour 30, trypan blue, 90 min, read-out: LD 50 (concentration leading to a mortality of 50%)
red corpuscles [1] = assay: Toxicity on red corpuscles (lysis), mice; settings: 37° C., 1 hour 30, 90 min, read-out: LD 50 (dose which leads to lysis in 50% of the erythrocytes)
Protocol: (§7) B.1: Study of the toxicity on red corpuscles
(§8) All the solutions of the AmB derivatives according to the invention were prepared immediately before use by diluting 4 mg of substance in 100 μl of 5% glucose solution, and then, after 15 minutes protected from light, 100 μl of sterile distilled water are added, and the mixture is made up to stock solutions of 4 mg/ml with a 5% glucose solution. For comparative study of the effects of AmB, 4 mg of FUNGIZONE are diluted with 1 ml of 5% glucose.
(§9) The cells are prepared by placing 1 ml of a peripheral blood sample into a tube together with Ficollhypaque to remove the lymphocytes, and then centrifuging the mixture at 2000 rpm for 20 minutes. The remaining red corpuscles are recovered, washed once with 0.9% NaCl and then twice with 150 Mm KCl, 0.5 Mm tris-HCl, pH 7.4.
(§10) A 1.25% suspension is then prepared with 150 mM KCl solution, 0.5 mM tris-HCl, pH 7.4, and 150 μl thereof are distributed in wells along with 50 μl of each of the dilutions of the derivatives, plus a control well (5% glucose solution).
(§11) The cells are then incubated at 37° C. in a steam cabinet for 1 hour 30.
(§12) To evaluate the cell lysis, haemoglobin is essayed by removing 100 μl of the supernatant in each well and diluting the sample with 1 ml of distilled water.
(§13) The haemoglobin concentration is calculated by measuring the optical density at 540 nm and taking into account the absorption of the derivatives of amphotericine B.
(§14) LD 50 is the dose which leads to lysis in 50% of the erythrocytes (a control of 100% lysis is obtained with distilled water, and reference lysis of 0% is obtained with the 5% glucose solution).

red corpuscles [2] = assay: Toxicity on red corpuscles (lysis), human; settings: 37° C., 1 hour 30, 90 min, 90 min, read-out: LD 50 (dose which leads to lysis in 50% of the erythrocytes)
Protocol: as §7, §8, §9, §10, §11, §12, §13, §14

thymocytes = assay: Toxicity on nucleated cells, mice thymocytes; settings: 1 hour 30, trypan blue, 90 min, read-out: LD 50 (concentration leading to a mortality of 50%)
X 63 (mice lymphoma B) = assay: Toxicity on nucleated cells, X 63 mice lymphoma B; settings: 1 hour 30, trypan blue, 90 min, read-out: LD 50 (concentration leading to a mortality of 50%)
Saccharomyces cerevisiae = assay: Growth inhibition in liquid medium (Sabouraud broth); settings: Sabouraud broth, 28° C., 18 hours, read-out: IC 50 (growth-inhibiting concentration of 50%)
Protocol: (§15) A.1 : Study of the antibiotic efficiency of AmB derivatives in liquid medium against different yeasts
(§16) The antibiotic efficiency was tested by the growth inhibition method in liquid medium (Sabouraud broth) in the presence of different concentrations of the derivatives studied.
(§17) A yeast suspension was cultivated in a broth in such a manner that about 1×10^2 cell/ml were obtained.
(§18) The tubes containing the different concentrations of antifungal substance were inoculated with the same amount of yeast cells, and were then incubated at 28° C. for 18 hours with stirring. For each concentration of antifungal substance, two identical tubes were prepared.
(§19) The inhibition of fungal growth corresponding to the different concentrations was evaluated for each molecule by spectrophotometry at 620 nm and expressed in percent with respect to a reference solution without antifungal substance.

Candida albicans = assay: as above; settings: Sabouraud broth, 28° C., 18 hours, read-out: IC 50 (growth-inhibiting concentration of 50%)
Protocol: as §15, §16, §17, §18, §19

Aspergillus fumigatus = assay: Diffusion method in agar-agar medium (Sabouraud agar-agar); settings: Sabouraud agar-agar, disc diameter 1 cm, 0.1 ml
Protocol: (§20) A.2 : Study of the antibiotic efficiency of amphotericine B derivatives in agar-agar medium against Aspergillus
(§21) The antibiotic activity was tested by the diffusion method in agar-agar medium (Sabouraud agar-agar).
(§22) The efficiency of each molecule was determined by the size of the growth-inhibiting zone around a WHATMAN 3M paper disc impregnated with the antibiotic substance of a given concentration.
(§23) A suspension of Aspergillus spores in a broth was prepared, 0.2 ml of this suspension was used to inoculate at its surface an agar-agar medium which was solidified in such a manner that a homogeneous growth layer was obtained. After spreading, the WHATMAN 3M paper discs (diameter: 1 cm) were placed on the surface of the agar-agar, and then impregnated with 0.1 ml of the antibiotic substance at different concentrations.

Aspergillus flavus = assay: as above; settings: Sabouraud agar-agar, disc diameter 1 cm, 0.1 ml
Protocol: as §20, §21, §22, §23

[3] = Toxicity on nucleated cells, mice T lymph gland cells; settings: mouse, 1 hour 30, trypan blue, read-out: LD 50 (concentration leading to a mortality of 50%)
Protocol: as §1, §2, §3, §4, §5, §6

[4] = Toxicity on nucleated cells, human bone marrow; settings: 1 hour 30, trypan blue, read-out: LD 50 (concentration leading to a mortality of 50%)
Protocol: as §1, §2, §3, §4, §5, §6

[5] = Toxicity on nucleated cells, mice thymocytes; settings: mouse, thymocytes, 1 hour 30, trypan blue, read-out: LD 50 (concentration leading to a mortality of 50%)
[6] = Toxicity on nucleated cells, mice B lymph gland cells; settings: mouse, 1 hour 30, trypan blue, read-out: LD 50 (concentration leading to a mortality of 50%)
Protocol: as §1, §2, §3, §4, §5, §6

Cryptoccocus neoformans = assay: Growth inhibition in liquid medium (Sabouraud broth); settings: Sabouraud broth, 28° C., 18 hours; read-out: IC 50 (growth-inhibiting concentration of 50%)
Protocol: as §15, §16, §17, §18, §19

Pytirosporum orbiculare = assay: as above; settings: Sabouraud broth, 28° C., 18 hours; read-out: IC 50 (growth-inhibiting concentration of 50%)
Protocol: as §15, §16, §17, §18, §19

[7] = Toxicity on nucleated cells, human thymocytes; settings: 1 hour 30, trypan blue, read-out: LD 50 (concentration leading to a mortality of 50%)
Protocol: as §1, §2, §3, §4, §5, §6

[8] = human PBL, 1 hour 30, trypan blue, read-out: LD 50 (concentration leading to a mortality of 50%)

Row | SMILES | CC50 (DAUDI (human lymphoma B)) | CC50 (PBL; [8]) | HC50 (red corpuscles [2]) | CC50 (thymocytes) | CC50 (X 63 (mice lymphoma B)) | IC50 (Saccharomyces cerevisiae) | IC50 (Candida albicans) | concentration giving a growth inhibition of 1 cm around a disc in solid medium (Aspergillus fumigatus) | concentration giving a growth inhibition of 1 cm around a disc in solid medium (Aspergillus flavus) | HC50 (red corpuscles [1]; 90 min) | IC50 (Cryptoccocus neoformans) | other results
1 | C[C@@H]1[C@H](O)[C@@H](C)/C=C/C=C/C=C/C=C/C=C/C=C/C=C/[C@H](O[C@@H]2O[C@H](C)[C@@H](O)[C@H](NCC3(O)O[C@H](C(N)=O)[C@@H](O)[C@@H]3O)[C@@H]2O)C[C@@H]2O[C@](O)(C[C@@H](O)C[C@@H](O)[C@H](O)CC[C@@H](O)C[C@@H](O)CC(=O)O[C@H]1C)C[C@H](O)[C@H]2C(=O)O (stereo partly drawn) [Acetic acid NMG salt] | – | – | – | – | – | – | – | – | – | – | – | CC50 (PBL; human PBLs, AmB 12 derivative, comparison of different catalysts (Table 4), read-out: LD 50 (the source's name)): 200 µM
2 | C[C@@H]1[C@H](O)[C@@H](C)/C=C/C=C/C=C/C=C/C=C/C=C/C=C/[C@H](O[C@@H]2O[C@H](C)[C@@H](O)[C@H](NCC3(O)O[C@H](C(N)=O)[C@@H](O)[C@@H]3O)[C@@H]2O)C[C@@H]2O[C@](O)(C[C@@H](O)C[C@@H](O)[C@H](O)CC[C@@H](O)C[C@@H](O)CC(=O)O[C@H]1C)C[C@H](O)[C@H]2C(=O)O (stereo partly drawn) [AmB 12 G, 1-amino-1-deoxy-D-arabinoglucuronamidyl-AmB] | > 300 µM | 46 µM | 30 µM | 5 µM | 500 µM | 0.62 µM | 0.1 µM | 1 × 10^-4 molarity | 9 × 10^-5 molarity | – | – | HC50 (red corpuscles [1]): 20 µM
3 | C[C@@H]1[C@H](O)[C@@H](C)/C=C/C=C/C=C/C=C/C=C/C=C/C=C/[C@H](O[C@@H]2O[C@H](C)[C@@H](O)[C@H](NCC3(O)O[C@H](C(=O)O)[C@@H](O)[C@@H]3O)[C@@H]2O)C[C@@H]2O[C@](O)(C[C@@H](O)C[C@@H](O)[C@H](O)CC[C@@H](O)C[C@@H](O)CC(=O)O[C@H]1C)C[C@H](O)[C@H]2C(=O)O (stereo partly drawn) [AmB 17 F, 1-amino-1-deoxy-D-arabinoglucuronyl-AmB] | > 1000 µM | > 1000 µM | 200 µM | – | > 1000 µM | – | – | 2 × 10^-4 molarity | 2 × 10^-4 molarity | 30 µM | 0.15 µM | CC50 at 1.5 h [3]: 20 µM; CC50 at 1.5 h [4]: > 1000 µM; CC50 at 1.5 h [5]: 8 µM; CC50 at 1.5 h [6]: 150 µM; IC50 (Pytirosporum orbiculare): 0.09 µM; IC50 (Saccharomyces cerevisiae; Saccharomyces cerevisiae, 18 h): 1.4 µM; IC50 (Candida albicans; Candida albicans, 18 h): 0.13 µM; CC50 at 1.5 h [7]: > 300 µM
4 | C[C@@H]1[C@H](O)[C@@H](C)/C=C/C=C/C=C/C=C/C=C/C=C/C=C/[C@H](O[C@@H]2O[C@H](C)[C@@H](O)[C@H](NCC3(O)O[C@H](C(=O)O)[C@@H](O)[C@@H]3O)[C@@H]2O)C[C@@H]2O[C@](O)(C[C@@H](O)C[C@@H](O)[C@H](O)CC[C@@H](O)C[C@@H](O)CC(=O)O[C@H]1C)C[C@H](O)[C@H]2C(=O)O (stereo partly drawn) [AmB 17 G, 1-amino-1-deoxy-D-arabinoglucuronyl-AmB] | 300 µM | 10 µM | 50 µM | 5 µM | 150 µM | 0.86 µM | – | 3.5 × 10^-5 molarity | 9 × 10^-5 molarity | 10 µM | 0.06 µM | –
5 | C[C@@H]1[C@H](O)[C@@H](C)/C=C/C=C/C=C/C=C/C=C/C=C/C=C/[C@H](O[C@@H]2O[C@H](C)[C@@H](O)[C@H](NCC(=O)[C@@H](O)[C@@H]3OC(c4ccccc4)OC[C@H]3O)[C@@H]2O)C[C@@H]2O[C@](O)(C[C@@H](O)C[C@@H](O)[C@H](O)CC[C@@H](O)C[C@@H](O)CC(=O)O[C@H]1C)C[C@H](O)[C@H]2C(=O)O (stereo partly drawn) [AmB 20 G, 1-deoxy-1-amino-4,6O-benzylidene-D-fructosyl-AmB] | 500 µM | 30 µM | 80 µM | 4 µM | 150 µM | 1 µM | 0.1 µM | 1.3 × 10^-4 molarity | 6 × 10^-4 molarity | 4 µM | 0.06 µM | –
6 | CC1OC[C@@H](O)[C@H]([C@H](O)C(=O)CN[C@@H]2[C@H](O)[C@H](O[C@H]3/C=C/C=C/C=C/C=C/C=C/C=C/C=C/[C@H](C)[C@@H](O)[C@@H](C)[C@H](C)OC(=O)C[C@H](O)C[C@H](O)CC[C@@H](O)[C@H](O)C[C@H](O)C[C@]4(O)C[C@H](O)[C@@H](C(=O)O)[C@H](C3)O4)O[C@H](C)[C@H]2O)O1 (stereo partly drawn) [AmB 22 G, 1-deoxy-1-amino-4,6-O-ethylidene-D-fructosyl-AmB] | 700 µM | 30 µM | 50 µM | 5 µM | 400 µM | 1.2 µM | 0.09 µM | 1 × 10^-4 molarity | 9 × 10^-5 molarity | 10 µM | 0.12 µM | –
7 | CC(=O)NC[C@H]1OC(O)(CN[C@@H]2[C@H](O)[C@H](O[C@H]3/C=C/C=C/C=C/C=C/C=C/C=C/C=C/[C@H](C)[C@@H](O)[C@@H](C)[C@H](C)OC(=O)C[C@H](O)C[C@H](O)CC[C@@H](O)[C@H](O)C[C@H](O)C[C@]4(O)C[C@H](O)[C@@H](C(=O)O)[C@H](C3)O4)O[C@H](C)[C@H]2O)[C@@H](O)[C@@H]1O (stereo partly drawn) [AmB 23 G, 6-deoxy-6-N-acetyl-1-deoxy-1-amino-fructosyl-AmB] | 300 µM | 8 µM | 1 µM | 2.5 µM | 500 µM | 1 µM | – | 9 × 10^-5 molarity | 5 × 10^-4 molarity | 4 µM | 0.17 µM | –
